Results taken from patent publication US10568933B2, “Beta-casein A2 and blood glucose levels” (THE A2 MILK COMPANY LIMITED, priority 2013, dated 2020).

Test system: SH-SY5Y cells
Experiment: Effect of BCM-7 on DNA methylation levels (MBD-seq)
Assay type: cell-based, human
Conditions: 1 μM, 4 hours
Description: Shifts in global DNA methylation patterns induced by BCM-7 were investigated using methyl-CpG binding domain (MBD) protein-enriched genome sequencing (MBD-seq) as described previously (Trivedi M., et al., Mol. Pharm. 2014), whereas mRNA translation microarray data was obtained using an Agilent V3 microarray chip, from non-treated control SH-SY5Y cells and cells treated for 4 hours with 1 μM BCM-7.
Genomic DNA was extracted from samples using the Easy DNA kit (Invitrogen K1800-01) using the appropriate protocol for cell lines. Fragmentation was performed on a Covaris S2 ultrasonicator using the following settings: duty cycle 10%, intensity 5, 200 cycles per burst during 200 sec. Fragments were obtained having an average length of 200 bp. The power mode is frequency sweeping, temperature 6-8° C., water level 12. […] DNA with an input from […] was analysed on the Agilent 2100 using a DNA 1000 chip. […] The concentrations of fragmented and captured DNA were determined on a Fluostar Optima plate reader with the Quant-iT PicoGreen dsDNA Assay Kit (Invitrogen P7589) at 480/520 nm. […]
The Illumina library amplification index protocol was used with the following alterations: 22 μl DNA was used and performed 21 cycles run. […] 1 μl was applied to an Agilent 2100 HS DNA chip and the concentration was determined by smear analysis on the Agilent 2100. […]

beta-casomorphin-7 [BCM-7]
Epigenetic status (DNA methylation) of genes responsible for glucose metabolism, synthesis and glucose homeostasis: altered
